The supplement of paper PMC10307832

Assays:
Assay in all cases: relative viability (nuclei count vs DMSO), 5 days (fraction); higher = more cells survive
Quizartinib + Bortezomib = compound: CC(C)(C)c1cc(NC(=O)Nc2ccc(-c3cn4c(n3)sc3cc(OCCN5CCOCC5)ccc34)cc2)no1 [Quizartinib] + CC(C)C[C@H](NC(=O)[C@H](Cc1ccccc1)NC(=O)c1cnccn1)B(O)O [Bortezomib] (partner 0.002 µM)
Procedure, shortened: (§1)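 Values are medians from duplicate plates. Each reflects relative viability, defined as the nuclei count of treated wells over that of vehicle wells. Lung cancer cell lines in 1536-well plates were pin-tool dosed one day after seeding with one drug alone or with a fixed anchor-drug dose plus five library-drug doses (not always all listed) in √10 steps, then fixed, stained and imaged at 4× after 5 days.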

Quizartinib + Pictilisib = compound: CC(C)(C)c1cc(NC(=O)Nc2ccc(-c3cn4c(n3)sc3cc(OCCN5CCOCC5)ccc34)cc2)no1 [Quizartinib] + CS(=O)(=O)N1CCN(Cc2cc3nc(-c4cccc5[nH]ncc45)nc(N4CCOCC4)c3s2)CC1 [Pictilisib] (partner 1 µM)
Procedure, shortened: as §1

Quizartinib + Olaparib = compound: CC(C)(C)c1cc(NC(=O)Nc2ccc(-c3cn4c(n3)sc3cc(OCCN5CCOCC5)ccc34)cc2)no1 [Quizartinib] + O=C(c1cc(Cc2n[nH]c(=O)c3ccccc23)ccc1F)N1CCN(C(=O)C2CC2)CC1 [Olaparib] (partner 8 µM)
Procedure, shortened: as §1

YM155 + Dasatinib = compound: COCC[n+]1c2c(n(Cc3cnccn3)c1C)C(=O)c1ccccc1C2=O [YM155] + Cc1nc(Nc2ncc(C(=O)Nc3c(C)cccc3Cl)s2)cc(N2CCN(CCO)CC2)n1 [Dasatinib] (partner 0.075 µM)
Procedure, shortened: as §1

| Cell Line | relative viability (Quizartinib + Bortezomib; first compound 0.001 µM) | relative viability (Quizartinib + Bortezomib; first compound 0.003162 µM) | relative viability (Quizartinib + Bortezomib; first compound 0.01 µM) | relative viability (Quizartinib + Bortezomib; first compound 0.1 µM) | relative viability (Quizartinib + Pictilisib; first compound 0.001 µM) | relative viability (Quizartinib + Pictilisib; first compound 0.003162 µM) | relative viability (Quizartinib + Pictilisib; first compound 0.01 µM) | relative viability (Quizartinib + Pictilisib; first compound 0.1 µM) | relative viability (Quizartinib + Olaparib; first compound 0.003162 µM) | relative viability (Quizartinib + Olaparib; first compound 0.01 µM) | relative viability (Quizartinib + Olaparib; first compound 0.03162 µM) | relative viability (Quizartinib + Olaparib; first compound 0.1 µM) | relative viability (YM155 + Dasatinib; first compound 0.002 µM) | relative viability (YM155 + Dasatinib; first compound 0.006325 µM) | relative viability (YM155 + Dasatinib; first compound 0.02 µM) | relative viability (YM155 + Dasatinib; first compound 0.06325 µM) | relative viability (Quizartinib + Bortezomib; first compound 0.03162 µM) | relative viability (Quizartinib + Pictilisib; first compound 0.03162 µM) | relative viability (Quizartinib + Olaparib; first compound 0.001 µM) |
| --- | --- | --- | --- | --- | --- | --- | --- | --- | --- | --- | --- | --- | --- | --- | --- | --- | --- | --- | --- |
| ChaGo-K-1 | 0.693 | 1.16 | 1.06 | 1.28 | 0.49 | 0.905 | 0.669 | 1.01 | 0.415 | 0.463 | 0.45 | 0.447 | 0.463 | 0.503 | 0.582 | 0.629 | – | – | – |
| EBC-1 | 0.524 | 0.505 | 0.561 | 0.466 | 0.423 | 0.285 | 0.406 | 0.452 | 0.68 | 0.803 | 0.626 | 0.754 | – | – | – | – | 0.495 | 0.37 | 0.732 |
| EKVX | 0.892 | 0.938 | 1.01 | 1 | 0.464 | 0.478 | 0.471 | 0.476 | 0.821 | 0.886 | 0.904 | 1.01 | 0.647 | 0.539 | 0.491 | 0.62 | 1.13 | 0.407 | – |
| EMC-BAC-2 | 0.986 | 1.14 | 0.985 | 1.05 | 0.561 | 0.562 | 0.54 | 0.592 | 0.441 | 0.524 | – | 0.536 | 0.327 | 0.355 | 0.325 | 0.338 | 0.857 | 0.511 | 0.468 |
| EPLC-272H | 0.778 | 0.836 | 0.818 | 0.75 | 0.314 | 0.391 | 0.405 | 0.398 | 0.635 | 0.861 | 0.658 | 0.434 | 0.358 | 0.371 | 0.396 | 0.365 | 0.69 | 0.323 | 0.946 |
| H3255 | 0.776 | 0.713 | 0.7 | 0.774 | 0.486 | 0.404 | 0.507 | 0.47 | 0.552 | 0.565 | 0.525 | 0.57 | 0.379 | 0.339 | 0.534 | 0.405 | 0.946 | 0.471 | 0.516 |
| HARA | 0.931 | 1.11 | 1.15 | 1.17 | 0.345 | 0.372 | 0.305 | 0.477 | 0.803 | 0.68 | 0.996 | 0.759 | 0.161 | 0.278 | 0.298 | 0.292 | 1.07 | 0.3 | 0.854 |
| HCC-15 | 0.759 | 0.992 | 0.987 | 0.988 | 0.433 | 0.788 | 0.755 | 0.707 | 0.685 | 0.676 | 0.641 | 0.69 | 0.663 | 0.56 | 0.593 | 0.507 | 0.984 | 0.607 | 0.684 |
| HCC-44 | 0.878 | 0.937 | 0.941 | 0.775 | 0.669 | 0.516 | 0.56 | 0.555 | 0.982 | 1.03 | 0.981 | 0.952 | – | – | – | – | 0.838 | 0.626 | 0.934 |
